# Patent publication US11033526B2 (priority 2015, dated 2021)
# Read-outs that look alike come from different tables or passages of the source.
# Key:
# CMVMJD135 mice [1] = conditions: cited from earlier work
# [2] = tested on: AT3q130 animals (mutant ATXN3); experiment: C. elegans assay for motility defects in AT3q130 animals; type: in vivo; conditions: for mutant ATXN3-mediated neuronal dysfunction (locomotion defects): liquid culture, four day old animals
# Protocol: C. elegans assays for motility defects and aggregation. Animals (N2, AT3 WT or AT3q130) were grown in liquid culture in a 96-well plate format, with the chemical compounds, as described above. Four day old animals were transferred from the 96-well plates onto an unseeded NGM plate (equilibrated at 20° C.). Plates were allowed to dry for 1 hour before starting the assays. Motility assays were performed at 20° C. as previously described. Motor behaviour assays were run in triplicates or quadruplicates (n=3 or 4), with a total of at least 150 animals tested per genotype and/or compound. For confocal dynamic imaging and quantification of ATXN3 aggregation, live animals were immobilized with 3 mM levamisole (Sigma, USA) and mounted on a 3% agarose pad. All images were captured on an Olympus FV1000 (Japan) or Zeiss LSM 510 (Germany) confocal microscopes, under a 60× oil (NA=1.35) or 63× water (NA=1.0) objectives. Z-series imaging was acquired for all vehicle- and compound-treated animals, using a 515/514 nm laser excitation line for YFP fusion proteins. The pinhole was adjusted to 1.0 Airy unit of optical slice, and a scan was acquired every˜0.5 μm along the Z-axis. For quantification of aggregates three parameters were measured: area of aggregates/total area; number of aggregates/total area and number of aggregates. Values shown are the mean (normalized to vehicle treated control) of eight or more animals per group, unless noted otherwise.
# WT mice = experiment: Body weight and motor behaviour of treated WT mice; type: in vivo, mouse
# Protocol: (§1) Transgenic mouse model and drug administration. CMVMJD135 mice were generated as described previously. DNA extraction, animal genotyping and CAG repeat size analyses were performed as previously described. The mean repeat size (±s.d.) for all mice used was 130±2. […] Only male mice were used in this study. […] Treatment was initiated at five weeks of age, one week before the expected onset of the first neurological symptoms. The trial was ended at 34 weeks of age, according to the humane endpoints established for the non-treated CMVMJD135 mice. All animal procedures were conducted in accordance with European regulations (European Union Directive 86/609/EEC). Animal facilities and the people directly involved in animal experiments (ATC, SE, ASF, SDS) were certified by the Portuguese regulatory entity-[…]. All of the protocols performed were approved by the Animal Ethics Committee of the Life and Health Sciences Research Institute, University of Minho. Behavioural assessment. […] All behavioural tests started in a pre-symptomatic stage (4 weeks) and were conducted until 30 or 34 weeks of age (FIG. 5a). Neurological tests and general health assessment were performed using the SHIRPA protocol, enriched with the hanging wire test. The dragging of the paws and the stride length were evaluated with footprinting analysis. Motor behaviour was further assessed using the balance beam walk test (12 mm square and 17 mm round beams) and the motor swimming test. All behavioural tests were performed as previously described (Silva-Fernandes, A. et al. Chronic Treatment with 17-DMAG Improves Balance and Coordination in A New Mouse Model of Machado-Joseph Disease. Neurotherapeutics (2014). Body weight was also registered for each evaluation time point.
# CMVMJD135 mice [3] = experiment: Behavioural assessment of CMVMJD135 mice under chronic oral treatment; type: in vivo, mouse
# Protocol: as §1, with “Neurological tests and general health assessment were performed using the SHIRPA protocol, enriched with the hanging wire test.” left out, “All behavioural tests were performed as previously described (Silva-Fernandes, A. et al. Chronic Treatment with 17-DMAG Improves Balance and Coordination in A New Mouse Model of Machado-Joseph Disease. Neurotherapeutics (2014). Body weight was also registered for each evaluation time point.” left out
structure (smiles),measurement,setting,value
CO[C@H]1/C=C\C=C(/C)C(=O)NC2=CC(=O)C(NCCN(C)C)=C(C[C@@H](C)C[C@H](OC)[C@H](O)[C@@H](C)/C=C(\C)[C@@H]1OC(N)=O)C2=O [17-DMAG],delay of manifestation of motor swimming defects,"CMVMJD135 mice [1]; CMVMJD135 mice, previous findings (Silva-Fernandes 2014)",eight
same,percentage of effect in motor swimming test,"CMVMJD135 mice [1]; at 30 weeks, CMVMJD135, previous findings (Silva-Fernandes 2014)",33%
O=C1CC2(CCCC2)CC(=O)N1CCCCN1CCN(c2ncccn2)CC1 [buspirone],mutant ATXN3-mediated neuronal dysfunction (locomotion defects),[2],ameliorated
CN(C)CCCC1(c2ccc(F)cc2)OCc2cc(C#N)ccc21 (stereo not drawn) [citalopram],behaviour of treated WT mice versus untreated littermates,WT mice,behaved similarly
same,"beam walk test, WT mice",WT mice; 8 mg/kg,No differences
same,body weight of WT mice,WT mice; 8 mg/kg,significant increase
same,"motor swimming test, WT mice",WT mice; 8 mg/kg,No differences
same,body weight of WT mice,WT mice; 13 mg/kg,significant increase
same,delay of manifestation of motor swimming defects,CMVMJD135 mice [3]; CMVMJD135 mice,at least 20 weeks
same,percentage of effect in motor swimming test,"CMVMJD135 mice [3]; at 30 weeks, CMVMJD135",79%
same,EC50,"[2]; Caenorhabditis elegans, dose-response profile, read-out: half-maximal effective concentration (EC50), locomotion defects",45 µM
CN1C[C@H](C(=O)N[C@]2(C)O[C@@]3(O)[C@@H]4CCCN4C(=O)[C@H](Cc4ccccc4)N3C2=O)C[C@@H]2c3cccc4[nH]cc(c34)C[C@H]21 [dihydroergotamine],mutant ATXN3-mediated neuronal dysfunction (locomotion defects),[2],ameliorated
CN(C)CCC[C@@]1(c2ccc(F)cc2)OCc2cc(C#N)ccc21 [escitalopram],mutant ATXN3-mediated neuronal dysfunction (locomotion defects),[2],beneficial effects
CN1C[C@H](CO)C=C2c3cccc4[nH]cc(c34)C[C@H]21 [lysergol],mutant ATXN3-mediated neuronal dysfunction (locomotion defects),[2],ameliorated
CC(C)NCC(O)COc1cccc2[nH]ccc12 (stereo not drawn) [pindolol],mutant ATXN3-mediated neuronal dysfunction (locomotion defects),[2],ameliorated
